# Reference: PMC5340577 (Nuclear medicine and biology, 2016)
# Columns and labels:
# [1] = Stability of Re complex in aqueous solution by ^1H NMR; format: physicochemical; details: D2O, pH 7
# [2] = humans; cited from earlier work
Molecule,stability in aqueous solution (^1H NMR signals) [1],clearance as percent of that of ^131I-OIH [2]
Na[Re(CO)3(FEDA)] [Re-4],no change for weeks,–
"O=C([O-])CN=C([O-])CN=C([O-])CN=C([O-])C[S-].[O-2].[Tc+4] [^99mTc-MAG3, ^99mTc-mercaptoacetyltriglycine]",–,~ 60%
